* marks the point of attachment. Palmitoyl = CCCCCCCCCCCCCCCC(=O)*
Key:
[1] = target: T1, VEGF receptor 1 (VEGFR1 or Flt-1) (Homo sapiens, UniProt P17948); experiment: Sandwich ELISA of phosphorylated VEGFR1 in lysates of stimulated HUVEC; assay type: cell-based; conditions: HUVEC time-course 0-60 minutes; falls below untreated baseline
T1 construct: host or cells: HUVEC
Method: Human umbilical vein endothelial cells (HUVECs) and complete endothelial cell growth media (EGM) were purchased (Genlantis, San Diego, Calif.), passaged two times following receipt, and cryo-preserved in media with 5% DMSO. Cells were thawed as needed and grown to confluence in a […] flasks (VWR Falcon) prior to plating for experiments.
Phosphorylation of both VEGFRI and VEGFR2 was assayed using commercially available assay kit (R&D Systems, Minneapolis, Minn.) following the recommended protocol. First, confluent HUVECs plated in 24 well plates were starved for 5 hours in serum-free defined media (SFDM, Genlantis) specifically designed to maintain cells in a growth factor-free setting for growth factor signaling and metabolic assays. Following starvation, the various treatments were dissolved in SFDM to a concentration of 1 μM. […] Cells were exposed to treatment for 2 minutes. To evaluate the time-course of phosphorylation the same protocol was followed and cells were exposed to VEGF-PA for 0, 1, 3, 5, 10, 15, 20, 25, 30, 40, 50, and 60 minutes.

HUVECs [2] = experiment: HUVEC proliferation (CyQUANT-NF cell number); assay type: cell-based, human; conditions: 1 μM in EGM, 48 hours; untreated control 100.0%
Method: In vitro studies were performed using HUVECs, a primary endothelial cell that is VEGF-responsive and frequently used as a model endothelial cell for angiogenesis studies in vitro [31].
To evaluate proliferation, HUVECs were plated at 5000 per well in a 96 well plate. […] Additionally, unsupplemented growth media was used as a control. After 48 hours, cell number was quantified using CyQUANT-NF (Invitrogen) and a standard fluorescent microplate reader. Cell number is expressed relative to the group treated with unsupplemented growth media.

HUVECs [3] = experiment: HUVEC survival after serum-starvation (Annexin V-PE apoptosis); assay type: cell-based, human; conditions: 1 μM in EBM, serum-starvation 24 hours; untreated 31.7%
Method: To evaluate cell survival, endothelial basal media (EBM) without growth factors (Lonza) was used to induce a serum-starvation. Cells were plated in 12 well plates and grown to confluence with standard growth media. […] Cells were grown in these conditions for 24 hours. Survival was quantified using Annexin V: PE staining with 7-AAD vital staining (BD Biosciences) following provided assay instructions and analyzed on a DakoCytomation CyAn. Survival was assessed by determining the fraction of cells that were apoptotic (Annexin V-PE positive).

HUVECs [4] = experiment: HUVEC migration scratch assay; assay type: cell-based, human; conditions: 1 μM in EBM with 0.5% FBS, 18 hours; untreated 25.2%
Method: To evaluate cell migration, endothelial basal media (EBM) without growth factors (Lonza) was supplemented with 0.5% FBS in order to prevent apoptosis but not promote significant migration or proliferation. Cells were grown to confluence in a 12 well plate and a 1 ml pipette tip was used to create a denuded scratch and the surface was washed twice with PBS to remove detached cells. The average scratch width at the initial time-point was […] Markings were placed on the underside of the plate to ensure the same region of the scratch was recorded in each image. […] The total pixel area of the scratch at the initial time-point was recorded using ImageJ analysis software, and the percent migration was determined from the reduction in denuded area at 18 hours.

[5] = system: chicken chorioallantoic membrane (CAM); experiment: Shell-less chicken chorioallantoic membrane (CAM) angiogenesis assay; assay type: in vivo; conditions: 2 mM in PBS dried on coverslip, three days following treatment; saline 132%
Source text: An established assay reflecting in vivo angiogenesis, the chicken chorioallantoic membrane (CAM) assay, was used to evaluate the angiogenic potential of the VEGF-PA of the present examples. This assay utilizes the extra-embryonic allantois, a tissue derived from the mesoderm that develops into a densely vascularized membrane. A common deviation from the traditional assay is to remove the shell and conduct the assay on a shell-less embryo, termed the shell-less CAM assay, as we have performed here. Fertilized white leghorn chicken eggs (Phil's Fresh Eggs, Forreston, Ill.) were received and cultured in a temperature controlled, humidified egg incubator. On embryonic day 3, eggs were cracked within a sterile tissue culture hood into round 100 mm petri dishes. Fertilized embryos were then transferred to a water-jacketed CO2 incubator, set to 37.5° C., 1% CO2 and 100% relative humidity. On embryonic day 10, the material treatment was dissolved at 2 mM in PBS, evaporated onto the surface of a 5 mm round glass cover slip, and placed facing down on top of the CAM (n=16/group). Digital images were captured through the eyepiece of a Nikon stereomicroscope and vessel density was quantified by the number of intersections of vessel structures with the edge of the cover slip and expressed relative to the initial time-point. Images were captured daily, beginning at embryonic day 10 and culminating on embryonic day 13, the standard range over which the CAM assay is performed. Additionally, images were assessed qualitatively for morphological differences in the CAM vasculature including spoking, branching and leakage.

T1 sequence (P17948 27-1338): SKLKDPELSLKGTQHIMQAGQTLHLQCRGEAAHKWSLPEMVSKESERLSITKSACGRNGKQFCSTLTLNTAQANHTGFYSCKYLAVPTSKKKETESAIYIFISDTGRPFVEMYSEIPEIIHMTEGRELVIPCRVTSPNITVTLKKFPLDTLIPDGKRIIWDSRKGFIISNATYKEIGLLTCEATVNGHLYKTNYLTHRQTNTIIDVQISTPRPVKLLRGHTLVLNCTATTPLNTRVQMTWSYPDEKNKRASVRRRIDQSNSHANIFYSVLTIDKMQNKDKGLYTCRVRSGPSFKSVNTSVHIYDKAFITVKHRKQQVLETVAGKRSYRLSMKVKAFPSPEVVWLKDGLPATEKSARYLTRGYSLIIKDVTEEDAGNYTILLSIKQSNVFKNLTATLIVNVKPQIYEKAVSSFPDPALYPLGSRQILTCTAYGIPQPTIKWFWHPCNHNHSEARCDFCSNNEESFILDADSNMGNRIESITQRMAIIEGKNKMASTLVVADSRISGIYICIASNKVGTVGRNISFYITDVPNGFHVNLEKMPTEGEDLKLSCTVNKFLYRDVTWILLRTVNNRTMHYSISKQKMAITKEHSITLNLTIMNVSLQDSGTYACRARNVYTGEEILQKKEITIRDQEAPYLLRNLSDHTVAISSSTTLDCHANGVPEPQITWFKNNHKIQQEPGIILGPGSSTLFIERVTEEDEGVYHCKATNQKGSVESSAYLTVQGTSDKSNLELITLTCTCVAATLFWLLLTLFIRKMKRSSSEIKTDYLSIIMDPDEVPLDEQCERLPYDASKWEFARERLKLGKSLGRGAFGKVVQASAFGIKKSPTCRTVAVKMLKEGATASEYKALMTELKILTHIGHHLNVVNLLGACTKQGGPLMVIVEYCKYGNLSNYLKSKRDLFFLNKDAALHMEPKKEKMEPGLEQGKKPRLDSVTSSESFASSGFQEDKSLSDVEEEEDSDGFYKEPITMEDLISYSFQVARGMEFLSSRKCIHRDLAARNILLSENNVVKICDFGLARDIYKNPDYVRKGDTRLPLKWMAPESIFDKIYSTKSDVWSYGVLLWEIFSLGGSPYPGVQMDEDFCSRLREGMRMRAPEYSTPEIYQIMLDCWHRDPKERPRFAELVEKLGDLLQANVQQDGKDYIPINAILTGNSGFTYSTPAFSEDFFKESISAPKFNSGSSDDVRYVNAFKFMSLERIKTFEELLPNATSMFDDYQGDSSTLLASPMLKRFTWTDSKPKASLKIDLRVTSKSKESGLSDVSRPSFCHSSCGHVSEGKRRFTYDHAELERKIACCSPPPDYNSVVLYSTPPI

## CH3(CH2)14C(O)— VVAAKKKGKLTWQELYQLKYKGI-NH2 (Palmitoyl-VVAAKKKGKLTWQELYQLKYKGI-NH2; SMILES CCCCCCCCCCCCCCCC(=O)N[C@H](C(=O)N[C@H](C(=O)N[C@@H](C)C(=O)N[C@@H](C)C(=O)N[C@@H](CCCCN)C(=O)N[C@@H](CCCCN)C(=O)N[C@@H](CCCCN)C(=O)NCC(=O)N[C@@H](CCCCN)C(=O)N[C@@H](CC(C)C)C(=O)N[C@H](C(=O)N[C@@H](Cc1c[nH]c2ccccc12)C(=O)N[C@@H](CCC(N)=O)C(=O)N[C@@H](CCC(=O)O)C(=O)N[C@@H](CC(C)C)C(=O)N[C@@H](Cc1ccc(O)cc1)C(=O)N[C@@H](CCC(N)=O)C(=O)N[C@@H](CC(C)C)C(=O)N[C@@H](CCCCN)C(=O)N[C@@H](Cc1ccc(O)cc1)C(=O)N[C@@H](CCCCN)C(=O)NCC(=O)N[C@H](C(N)=O)[C@@H](C)CC)[C@@H](C)O)C(C)C)C(C)C) [VEGF-PA]
[1]
  time of stimulation at which phosphorylated VEGFR1 begins to decrease after initial rise: 10 min
HUVECs [2]
  proliferation (cell number relative to unsupplemented growth media): 137.0%±2.4%
HUVECs [3]
  fraction of apoptotic cells (Annexin V-PE positive): 10.2%±3.2%
HUVECs [4]
  reduction in scratch wound size (denuded area): 68.7%±4.2%
[5]
  blood vessels relative to the initial value: 229%±19%

Source: patent publication US20130101628A1 (NORTHWESTERN UNIVERSITY, priority 2011, published 2013)
